Experimental data reported in US5547845A (Duke University, priority 1994, dated 1996).
“Also recorded” adds a separate entry of the source. Where two headings read alike, the source gives them in different places.

What was measured:
[1] = target: T1, human D1 dopamine receptor (clone HGL26) (Homo sapiens, UniProt P21728); assay: Adenylyl cyclase activity in membranes of mouse fibroblasts [L-M(TK^-)] expressing HGL26; assay type: biochemical; conditions: for block of dopamine-stimulated adenylyl cyclase activity: dopamine 100 μM, SCH23390 and raclopride 1 μM each
[2] = target: T2, human D1 dopamine receptor (clone HGR213-1) (Homo sapiens, UniProt P21728); assay type: binding; set-up: expressed in transfected cells; host or cells: monkey kidney COS-7 cells, transient, PBC12BI; conditions: FIG. 4 competition curves
[3] = target: T1, human D1 dopamine receptor (clone HGL26); assay: Competition for [^125 I]SCH23982 binding to membranes of COS-7 cells expressing HGL26; set-up: a 2.3 kb EcoRI-XbaI restriction fragment containing the open reading frame was subcloned into the expression vector pCMV5; expressed in transfected cells; host or cells: African green monkey kidney COS-7 cells, transient, pCMV5
α1-adrenergic receptor = conditions: α1-adrenergic receptor-transfected COS-7 cells; data not shown
[4] = system: untransfected COS-7 cells; assay: Specific binding of [^3 H]SCH23390 to untransfected COS-7 cells; set-up: species or system monkey; conditions: data not shown
Experimental: Membranes were prepared by homogenizing cells with a ConTorque homogenizer at 4° C. in TEM buffer. The homogenate was centrifuged at 800 g for 10 min and the pellet was subjected to a second homogenization and centrifugation. Supernatants were pooled and centrifuged at 100,000 g for 1 h. The pellet was then resuspended in TEM buffer at appropriate protein concentration and stored in small aliquots at -70° C. […] Binding was initiated by the addition of membrane preparation (20-30 μg protein) and carried on at 30° C. for 1 h. Nonspecific binding was defined in the presence of 10 μM (+)Butaclamol. The samples were filtered through glass fiber filters (Schleicher and Schuell No.32) and washed three times with 4 ml ice-cold 10 mM Tris pH 7.4. The radioactivity retained on the filter was counted using a Beckman LS6800 scintillation counter. […] See J. Bunzow et al., Nature 336,783 (1988). […] A LIGAND computer program was used for data analysis and curve fitting.

[5] = target: T1, human D1 dopamine receptor (clone HGL26); assay: Saturation binding of [^125 I]SCH23982 to membranes of COS-7 cells expressing HGL26; set-up: a 2.3 kb EcoRI-XbaI restriction fragment containing the open reading frame was subcloned into the expression vector pCMV5; expressed in transfected cells; host or cells: African green monkey kidney COS-7 cells, transient, pCMV5; conditions: transfected COS-7 membranes vs antisense construct
Experimental: To identify the protein encoded by genomic clone HGL26, a 2.3 kb EcoRI-XbaI restriction fragment containing the open reading frame was subcloned into the expression vector pCMV5 and transiently transfected into African green monkey kidney (COS-7) cells. See Andersson, S. et al., J. Biol. Chem. 264, 8222-8229 (1989). The DEAE-dextran method was used for transient transfection of COS-7 cells. See Cullen, B. Meth. Enzymol. 152, 684-704 (1987). After 48 hours, transfected cells were lysed and homogenized in ice-cold lysis buffer (10 mM Tris HCl, pH 7.4, 5 mM EDTA). The homogenate was centrifuged at 43,000 g for 30 min at 4° C. The resulting pellet was resuspended in lysis buffer, re-homogenized, and re-centrifuged. This pellet was resuspended in an assay buffer containing 50 mM Tris HCl, pH 7.4, 100 mM NaCl, 5 mM EDTA.
See Sidhu, A. et al., J. Eur. J. Pharmacol. 128, 213-220 (1986).

[6] = target: T2, human D1 dopamine receptor (clone HGR213-1); assay: cAMP accumulation in human embryonic kidney 293 cells transfected with HGR213-1
[7] = ~0.3 nM [^125 I]SCH23982, 1 hr, room temperature, means of 2-5 independent determinations, one-site model, read-out: Kd (apparent equilibrium dissociation constant) for [^125 I]SCH23982 binding sites

T1 sequence (P21728 whole entry): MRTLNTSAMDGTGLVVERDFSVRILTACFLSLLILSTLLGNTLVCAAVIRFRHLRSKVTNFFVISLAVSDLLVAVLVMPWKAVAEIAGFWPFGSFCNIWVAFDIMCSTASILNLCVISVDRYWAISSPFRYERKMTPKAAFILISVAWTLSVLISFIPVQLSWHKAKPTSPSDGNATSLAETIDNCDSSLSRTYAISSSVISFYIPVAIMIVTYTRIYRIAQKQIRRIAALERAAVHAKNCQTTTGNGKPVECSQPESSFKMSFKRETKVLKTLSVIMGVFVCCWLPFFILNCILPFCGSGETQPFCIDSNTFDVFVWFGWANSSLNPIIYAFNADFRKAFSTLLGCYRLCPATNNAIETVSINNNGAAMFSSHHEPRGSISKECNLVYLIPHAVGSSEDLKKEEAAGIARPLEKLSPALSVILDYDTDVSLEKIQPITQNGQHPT
T2 sequence (P21728 whole entry, the tested form may be a part): as the sequence (P21728 whole entry) above

Oc1cc2c(cc1O)C(c1ccccc1)CNCC2 (stereo not drawn) [SKF38393]
stimulation of adenylyl cyclase activity (in words) ([1]; SKF38393 and quinpirole, 1 μM each): also stimulated enzyme activity

Oc1ccc(C2CNCCc3c2cc(O)c(O)c3Cl)cc1 (stereo not drawn) [SKF82526]
potency in competition with [^3 H]SCH23390 (in words) [2]: most potent

OCCC1CCN(CC/C=C2/c3ccc(F)cc3Sc3ccc(C(F)(F)F)cc32)CC1 [cis-piflutixol]
Kd [3, 7]: 0.2 nM

C=CCc1ccccc1OCC(O)CNC(C)C (stereo not drawn) [alprenolol]
Kd [3]: 16000 nM

CNC[C@H](O)c1ccc(O)c(O)c1 [epinephrine]
stimulation of phosphatidylinositol (PI) metabolism (α1-adrenergic receptor): potently evoked this response

OCCN1CCN(CC/C=C2/c3ccccc3Sc3ccc(C(F)(F)F)cc32)CC1 [cis-flupenthixol]
rank order of ligand potency [2]: SCH23390<(+)Butaclamol>Flupenthixol>>Haloperidol

CN1CCc2cc(Cl)c(O)cc2C(c2ccccc2)C1 (stereo not drawn) [[^3 H]SCH23390]
specific binding to untransfected cells [4]: no specific binding

CN1CCc2cc([125I])c(O)cc2[C@@H](c2ccccc2)C1 [[^125 I]SCH23982]
increase in specific binding compared to cells transfected with an antisense construct [5]: 10- to 30 fold

CCN1CCC[C@H]1CNC(=O)c1c(O)c(Cl)cc(Cl)c1OC (racemic) [raclopride]
block of dopamine-stimulated adenylyl cyclase activity [1]: not by the D2 antagonist raclopride | Kd [3, 7]: > 72000 nM

O=C(CCCN1CCC2(CC1)C(=O)NCN2c1ccccc1)c1ccc(F)cc1 [spiperone]
Kd [3]: 220 nM

CN1CCc2cc(Cl)c(O)cc2[C@@H](c2ccccc2)C1 [SCH23390]
potency in competition with [^3 H]SCH23390 (in words) [2]: most potent | rank order of ligand potency [2]: SCH23390<(+)Butaclamol>Flupenthixol>>Haloperidol | antagonism of agonist-stimulated cAMP production [6]: blocked; also recorded: antagonized | block of dopamine-stimulated adenylyl cyclase activity [1]: blocked
